Data from the kinase profiling compilation of Christmann-Franck et al. (2016).

Molecular target: TNK2 (human) (UniProt Q07912)
Assay: radiometric filter-binding kinase assay, Kinase HotSpot
Details: compound 0.5 µM; ATP 10 µM

Compound | residual activity
CCc1nc(-c2ccc(OC)cc2)[nH]c1-c1ccncc1 | 100%
O=c1c(-c2ccc(F)cc2)c(-c2ccncc2)[nH]n1-c1ccc(Cl)cc1 | 91.2%
CCCCc1c(-c2ccc(O)cc2)[nH]c2nccnc12 | 49.9%
O=S(=O)(NCCNC/C=C/c1ccc(Br)cc1)c1cccc2cnccc12 | 88.3%
Nc1ncnc2c1cnn2-c1ccccc1 | 90.3%

Molecular target: MLTK (human) (UniProt Q9NYL2)
Sequence (Q9NYL2 whole entry, looked up): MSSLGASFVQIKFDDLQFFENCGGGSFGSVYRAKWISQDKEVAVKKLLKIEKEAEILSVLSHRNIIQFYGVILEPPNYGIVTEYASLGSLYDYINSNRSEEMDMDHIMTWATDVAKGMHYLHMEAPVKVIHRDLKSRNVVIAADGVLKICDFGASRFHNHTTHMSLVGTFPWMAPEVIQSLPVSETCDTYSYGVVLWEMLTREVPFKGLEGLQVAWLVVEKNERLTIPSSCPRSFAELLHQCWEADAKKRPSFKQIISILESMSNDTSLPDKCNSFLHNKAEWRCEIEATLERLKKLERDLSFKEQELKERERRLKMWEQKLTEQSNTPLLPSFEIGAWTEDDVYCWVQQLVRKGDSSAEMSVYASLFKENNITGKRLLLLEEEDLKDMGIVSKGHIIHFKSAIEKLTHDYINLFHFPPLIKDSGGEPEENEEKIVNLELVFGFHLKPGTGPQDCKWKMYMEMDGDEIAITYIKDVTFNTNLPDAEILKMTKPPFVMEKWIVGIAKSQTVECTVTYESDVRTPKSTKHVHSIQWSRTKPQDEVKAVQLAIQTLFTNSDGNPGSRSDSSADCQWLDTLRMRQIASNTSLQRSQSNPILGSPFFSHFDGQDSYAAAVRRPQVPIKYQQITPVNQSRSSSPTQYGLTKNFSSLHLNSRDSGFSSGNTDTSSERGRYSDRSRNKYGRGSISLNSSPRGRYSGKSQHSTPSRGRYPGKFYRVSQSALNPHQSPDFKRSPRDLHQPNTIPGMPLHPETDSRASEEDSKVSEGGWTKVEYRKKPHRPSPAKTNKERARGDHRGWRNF
Assay: as above
Details: compound 0.5 µM; ATP 10 µM

Compound | residual activity
CCc1nc(-c2ccc(OC)cc2)[nH]c1-c1ccncc1 | 106%
O=c1c(-c2ccc(F)cc2)c(-c2ccncc2)[nH]n1-c1ccc(Cl)cc1 | 91.2%
CCCCc1c(-c2ccc(O)cc2)[nH]c2nccnc12 | 71%
O=S(=O)(NCCNC/C=C/c1ccc(Br)cc1)c1cccc2cnccc12 | 105%
Nc1ncnc2c1cnn2-c1ccccc1 | 92.5%

Molecular target: ACVR1B (human) (UniProt P36896)
Sequence (P36896 whole entry, looked up): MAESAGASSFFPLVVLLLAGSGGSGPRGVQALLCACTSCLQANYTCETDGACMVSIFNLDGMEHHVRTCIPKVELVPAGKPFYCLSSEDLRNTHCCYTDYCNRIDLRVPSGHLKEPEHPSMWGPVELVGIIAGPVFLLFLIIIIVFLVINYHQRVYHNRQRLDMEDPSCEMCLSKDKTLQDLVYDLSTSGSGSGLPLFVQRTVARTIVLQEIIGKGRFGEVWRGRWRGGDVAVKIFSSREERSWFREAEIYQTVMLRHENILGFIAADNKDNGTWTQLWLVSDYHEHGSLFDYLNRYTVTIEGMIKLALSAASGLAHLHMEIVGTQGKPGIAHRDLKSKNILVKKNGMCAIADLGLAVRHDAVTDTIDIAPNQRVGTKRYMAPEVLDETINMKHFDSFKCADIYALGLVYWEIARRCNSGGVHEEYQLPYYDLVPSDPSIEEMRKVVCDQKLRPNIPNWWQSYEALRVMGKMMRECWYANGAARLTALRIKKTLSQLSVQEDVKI
Assay: as above
Details: compound 0.5 µM; ATP 10 µM

Compound | residual activity
CCc1nc(-c2ccc(OC)cc2)[nH]c1-c1ccncc1 | 86.5%
O=c1c(-c2ccc(F)cc2)c(-c2ccncc2)[nH]n1-c1ccc(Cl)cc1 | 123%
CCCCc1c(-c2ccc(O)cc2)[nH]c2nccnc12 | 117%
Nc1ncnc2c1cnn2-c1ccccc1 | 99.4%

Molecular target: STK33 (human) (UniProt Q9BYT3)
Assay: as above
Details: compound 0.5 µM; ATP 10 µM

Compound | residual activity
CCc1nc(-c2ccc(OC)cc2)[nH]c1-c1ccncc1 | 101%
O=c1c(-c2ccc(F)cc2)c(-c2ccncc2)[nH]n1-c1ccc(Cl)cc1 | 101%
CCCCc1c(-c2ccc(O)cc2)[nH]c2nccnc12 | 80.8%
O=S(=O)(NCCNC/C=C/c1ccc(Br)cc1)c1cccc2cnccc12 | 79.5%
Nc1ncnc2c1cnn2-c1ccccc1 | 96.1%

Molecular target: ADRBK1 (human) (UniProt P25098)
Assay: as above
Details: compound 0.5 µM; ATP 10 µM

Compound | residual activity
CCc1nc(-c2ccc(OC)cc2)[nH]c1-c1ccncc1 | 101%
O=c1c(-c2ccc(F)cc2)c(-c2ccncc2)[nH]n1-c1ccc(Cl)cc1 | 106%
CCCCc1c(-c2ccc(O)cc2)[nH]c2nccnc12 | 76.5%
O=S(=O)(NCCNC/C=C/c1ccc(Br)cc1)c1cccc2cnccc12 | 91.3%
Nc1ncnc2c1cnn2-c1ccccc1 | 99.4%

Molecular target: PTK2 (human) (UniProt Q05397)
Assay: as above
Details: compound 0.5 µM; ATP 10 µM

Compound | residual activity
CCc1nc(-c2ccc(OC)cc2)[nH]c1-c1ccncc1 | 101%
O=c1c(-c2ccc(F)cc2)c(-c2ccncc2)[nH]n1-c1ccc(Cl)cc1 | 95.1%
CCCCc1c(-c2ccc(O)cc2)[nH]c2nccnc12 | 83.1%
O=S(=O)(NCCNC/C=C/c1ccc(Br)cc1)c1cccc2cnccc12 | 64.1%
Nc1ncnc2c1cnn2-c1ccccc1 | 94.9%

Molecular target: PRKCZ (human) (UniProt Q05513)
Sequence (Q05513 whole entry, looked up): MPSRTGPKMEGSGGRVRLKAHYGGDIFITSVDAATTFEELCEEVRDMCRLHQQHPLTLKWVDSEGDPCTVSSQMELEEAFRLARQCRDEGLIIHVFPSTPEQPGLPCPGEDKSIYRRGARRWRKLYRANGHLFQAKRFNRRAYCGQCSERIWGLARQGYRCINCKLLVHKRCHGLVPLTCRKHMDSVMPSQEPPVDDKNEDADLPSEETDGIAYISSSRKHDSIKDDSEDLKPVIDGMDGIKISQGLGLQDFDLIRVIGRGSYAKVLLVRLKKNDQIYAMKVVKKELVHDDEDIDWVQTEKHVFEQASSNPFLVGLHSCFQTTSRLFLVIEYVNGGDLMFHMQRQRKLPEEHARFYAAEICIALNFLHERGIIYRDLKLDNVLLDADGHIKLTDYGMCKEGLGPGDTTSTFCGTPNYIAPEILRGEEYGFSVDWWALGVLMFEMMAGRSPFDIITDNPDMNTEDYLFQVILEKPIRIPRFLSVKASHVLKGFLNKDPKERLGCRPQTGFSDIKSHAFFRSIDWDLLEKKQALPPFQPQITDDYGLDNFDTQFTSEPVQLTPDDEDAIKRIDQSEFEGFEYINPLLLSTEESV
Assay: as above
Details: compound 0.5 µM; ATP 10 µM

Compound | residual activity
CCc1nc(-c2ccc(OC)cc2)[nH]c1-c1ccncc1 | 107%
O=c1c(-c2ccc(F)cc2)c(-c2ccncc2)[nH]n1-c1ccc(Cl)cc1 | 99%
CCCCc1c(-c2ccc(O)cc2)[nH]c2nccnc12 | 97.4%
O=S(=O)(NCCNC/C=C/c1ccc(Br)cc1)c1cccc2cnccc12 | 79.8%
Nc1ncnc2c1cnn2-c1ccccc1 | 96.3%

Molecular target: RPS6KA2 KD1 KD2 (human) (UniProt Q15349)
Assay: as above
Details: compound 0.5 µM; ATP 10 µM

Compound | residual activity
CCc1nc(-c2ccc(OC)cc2)[nH]c1-c1ccncc1 | 99.1%
O=c1c(-c2ccc(F)cc2)c(-c2ccncc2)[nH]n1-c1ccc(Cl)cc1 | 91.8%
CCCCc1c(-c2ccc(O)cc2)[nH]c2nccnc12 | 87.7%
O=S(=O)(NCCNC/C=C/c1ccc(Br)cc1)c1cccc2cnccc12 | 79.2%
Nc1ncnc2c1cnn2-c1ccccc1 | 92.5%

Molecular target: SIK2 (human) (UniProt Q9H0K1)
Assay: as above
Details: compound 0.5 µM; ATP 10 µM

Compound | residual activity
CCc1nc(-c2ccc(OC)cc2)[nH]c1-c1ccncc1 | 88.3%
O=c1c(-c2ccc(F)cc2)c(-c2ccncc2)[nH]n1-c1ccc(Cl)cc1 | 101%
CCCCc1c(-c2ccc(O)cc2)[nH]c2nccnc12 | 95.9%
O=S(=O)(NCCNC/C=C/c1ccc(Br)cc1)c1cccc2cnccc12 | 95%
Nc1ncnc2c1cnn2-c1ccccc1 | 99.8%

Molecular target: CAMKK1 (human) (UniProt Q8N5S9)
Sequence (Q8N5S9 whole entry, looked up): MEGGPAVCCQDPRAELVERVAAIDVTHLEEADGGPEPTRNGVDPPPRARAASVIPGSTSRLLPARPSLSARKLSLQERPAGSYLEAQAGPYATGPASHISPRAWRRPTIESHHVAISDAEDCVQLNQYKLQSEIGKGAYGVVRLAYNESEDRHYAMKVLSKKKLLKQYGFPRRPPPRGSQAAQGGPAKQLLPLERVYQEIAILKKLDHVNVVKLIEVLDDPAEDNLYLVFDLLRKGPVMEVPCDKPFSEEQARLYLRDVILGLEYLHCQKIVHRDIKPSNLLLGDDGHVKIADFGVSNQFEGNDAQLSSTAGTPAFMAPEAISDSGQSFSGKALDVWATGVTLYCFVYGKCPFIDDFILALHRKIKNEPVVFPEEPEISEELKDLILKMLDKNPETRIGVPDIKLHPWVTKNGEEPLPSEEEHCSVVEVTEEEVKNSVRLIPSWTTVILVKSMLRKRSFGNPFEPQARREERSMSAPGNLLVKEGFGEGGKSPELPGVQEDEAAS
Assay: as above
Details: compound 0.5 µM; ATP 10 µM

Compound | residual activity
CCc1nc(-c2ccc(OC)cc2)[nH]c1-c1ccncc1 | 122%
O=c1c(-c2ccc(F)cc2)c(-c2ccncc2)[nH]n1-c1ccc(Cl)cc1 | 98.5%
CCCCc1c(-c2ccc(O)cc2)[nH]c2nccnc12 | 89.7%
O=S(=O)(NCCNC/C=C/c1ccc(Br)cc1)c1cccc2cnccc12 | 99.1%
Nc1ncnc2c1cnn2-c1ccccc1 | 84.8%

Molecular target: PRKCA (human) (UniProt P17252)
Assay: as above
Details: compound 0.5 µM; ATP 10 µM

Compound | residual activity
CCc1nc(-c2ccc(OC)cc2)[nH]c1-c1ccncc1 | 107%
O=c1c(-c2ccc(F)cc2)c(-c2ccncc2)[nH]n1-c1ccc(Cl)cc1 | 100%
CCCCc1c(-c2ccc(O)cc2)[nH]c2nccnc12 | 83.7%
O=S(=O)(NCCNC/C=C/c1ccc(Br)cc1)c1cccc2cnccc12 | 85.7%
Nc1ncnc2c1cnn2-c1ccccc1 | 103%

Molecular target: CDK9 CCNK (human) (UniProt O75909+P50750)
Assay: as above
Details: compound 0.5 µM; ATP 10 µM

Compound | residual activity
CCc1nc(-c2ccc(OC)cc2)[nH]c1-c1ccncc1 | 97.9%
O=c1c(-c2ccc(F)cc2)c(-c2ccncc2)[nH]n1-c1ccc(Cl)cc1 | 93.4%
CCCCc1c(-c2ccc(O)cc2)[nH]c2nccnc12 | 42.8%
O=S(=O)(NCCNC/C=C/c1ccc(Br)cc1)c1cccc2cnccc12 | 85.5%
Nc1ncnc2c1cnn2-c1ccccc1 | 92.9%

Molecular target: CSNK1G1 (human) (UniProt Q9HCP0)
Sequence (Q9HCP0 whole entry, looked up): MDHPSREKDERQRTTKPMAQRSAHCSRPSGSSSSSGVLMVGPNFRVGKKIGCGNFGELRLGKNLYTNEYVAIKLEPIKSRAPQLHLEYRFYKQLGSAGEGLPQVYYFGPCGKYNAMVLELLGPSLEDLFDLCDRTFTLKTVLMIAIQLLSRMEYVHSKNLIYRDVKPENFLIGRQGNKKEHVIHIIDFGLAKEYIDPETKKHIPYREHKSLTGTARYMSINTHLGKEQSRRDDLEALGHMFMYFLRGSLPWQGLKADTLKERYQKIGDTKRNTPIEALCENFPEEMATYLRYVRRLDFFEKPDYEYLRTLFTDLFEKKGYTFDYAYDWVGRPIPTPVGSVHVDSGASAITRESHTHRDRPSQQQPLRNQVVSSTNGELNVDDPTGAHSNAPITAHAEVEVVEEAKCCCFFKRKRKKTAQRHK
Assay: as above
Details: compound 0.5 µM; ATP 10 µM

Compound | residual activity
CCc1nc(-c2ccc(OC)cc2)[nH]c1-c1ccncc1 | 101%
O=c1c(-c2ccc(F)cc2)c(-c2ccncc2)[nH]n1-c1ccc(Cl)cc1 | 83.4%
CCCCc1c(-c2ccc(O)cc2)[nH]c2nccnc12 | 93.1%
O=S(=O)(NCCNC/C=C/c1ccc(Br)cc1)c1cccc2cnccc12 | 97.2%
Nc1ncnc2c1cnn2-c1ccccc1 | 94.8%

Molecular target: STK3 (human) (UniProt Q13188)
Assay: as above
Details: compound 0.5 µM; ATP 10 µM

Compound | residual activity
CCc1nc(-c2ccc(OC)cc2)[nH]c1-c1ccncc1 | 104%
O=c1c(-c2ccc(F)cc2)c(-c2ccncc2)[nH]n1-c1ccc(Cl)cc1 | 88.3%
CCCCc1c(-c2ccc(O)cc2)[nH]c2nccnc12 | 76.6%
O=S(=O)(NCCNC/C=C/c1ccc(Br)cc1)c1cccc2cnccc12 | 65.6%
Nc1ncnc2c1cnn2-c1ccccc1 | 92.3%

Molecular target: EPHB1 (human) (UniProt P54762)
Assay: as above
Details: compound 0.5 µM; ATP 10 µM

Compound | residual activity
CCc1nc(-c2ccc(OC)cc2)[nH]c1-c1ccncc1 | 104%
O=c1c(-c2ccc(F)cc2)c(-c2ccncc2)[nH]n1-c1ccc(Cl)cc1 | 90.5%
CCCCc1c(-c2ccc(O)cc2)[nH]c2nccnc12 | 78%
O=S(=O)(NCCNC/C=C/c1ccc(Br)cc1)c1cccc2cnccc12 | 106%
Nc1ncnc2c1cnn2-c1ccccc1 | 97.5%

Molecular target: EPHA4 (human) (UniProt P54764)
Assay: as above
Details: compound 0.5 µM; ATP 10 µM

Compound | residual activity
CCc1nc(-c2ccc(OC)cc2)[nH]c1-c1ccncc1 | 105%
O=c1c(-c2ccc(F)cc2)c(-c2ccncc2)[nH]n1-c1ccc(Cl)cc1 | 93.5%
CCCCc1c(-c2ccc(O)cc2)[nH]c2nccnc12 | 87.5%
O=S(=O)(NCCNC/C=C/c1ccc(Br)cc1)c1cccc2cnccc12 | 86.8%
Nc1ncnc2c1cnn2-c1ccccc1 | 96.2%

Molecular target: TGFBR2 (human) (UniProt P37173)
Sequence (P37173 whole entry, looked up): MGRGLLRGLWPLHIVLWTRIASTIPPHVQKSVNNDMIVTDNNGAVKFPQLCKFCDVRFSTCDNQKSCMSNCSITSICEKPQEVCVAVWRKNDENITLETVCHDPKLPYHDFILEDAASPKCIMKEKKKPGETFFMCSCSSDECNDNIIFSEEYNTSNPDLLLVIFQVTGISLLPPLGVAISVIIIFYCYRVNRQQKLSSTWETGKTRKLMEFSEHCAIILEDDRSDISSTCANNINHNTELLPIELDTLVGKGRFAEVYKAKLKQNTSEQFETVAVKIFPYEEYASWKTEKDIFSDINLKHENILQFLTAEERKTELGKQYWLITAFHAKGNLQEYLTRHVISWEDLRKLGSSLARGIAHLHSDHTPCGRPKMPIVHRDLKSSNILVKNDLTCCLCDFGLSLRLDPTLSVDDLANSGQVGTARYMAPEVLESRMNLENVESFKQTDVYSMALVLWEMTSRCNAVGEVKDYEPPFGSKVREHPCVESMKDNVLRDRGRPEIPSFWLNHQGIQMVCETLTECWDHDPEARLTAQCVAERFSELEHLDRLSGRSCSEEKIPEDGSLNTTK
Assay: as above
Details: compound 0.5 µM; ATP 10 µM

Compound | residual activity
CCc1nc(-c2ccc(OC)cc2)[nH]c1-c1ccncc1 | 140%
O=c1c(-c2ccc(F)cc2)c(-c2ccncc2)[nH]n1-c1ccc(Cl)cc1 | 97.7%
CCCCc1c(-c2ccc(O)cc2)[nH]c2nccnc12 | 55%
O=S(=O)(NCCNC/C=C/c1ccc(Br)cc1)c1cccc2cnccc12 | 92.1%
Nc1ncnc2c1cnn2-c1ccccc1 | 105%

Molecular target: EPHA2 (human) (UniProt P29317)
Sequence (P29317 whole entry, looked up): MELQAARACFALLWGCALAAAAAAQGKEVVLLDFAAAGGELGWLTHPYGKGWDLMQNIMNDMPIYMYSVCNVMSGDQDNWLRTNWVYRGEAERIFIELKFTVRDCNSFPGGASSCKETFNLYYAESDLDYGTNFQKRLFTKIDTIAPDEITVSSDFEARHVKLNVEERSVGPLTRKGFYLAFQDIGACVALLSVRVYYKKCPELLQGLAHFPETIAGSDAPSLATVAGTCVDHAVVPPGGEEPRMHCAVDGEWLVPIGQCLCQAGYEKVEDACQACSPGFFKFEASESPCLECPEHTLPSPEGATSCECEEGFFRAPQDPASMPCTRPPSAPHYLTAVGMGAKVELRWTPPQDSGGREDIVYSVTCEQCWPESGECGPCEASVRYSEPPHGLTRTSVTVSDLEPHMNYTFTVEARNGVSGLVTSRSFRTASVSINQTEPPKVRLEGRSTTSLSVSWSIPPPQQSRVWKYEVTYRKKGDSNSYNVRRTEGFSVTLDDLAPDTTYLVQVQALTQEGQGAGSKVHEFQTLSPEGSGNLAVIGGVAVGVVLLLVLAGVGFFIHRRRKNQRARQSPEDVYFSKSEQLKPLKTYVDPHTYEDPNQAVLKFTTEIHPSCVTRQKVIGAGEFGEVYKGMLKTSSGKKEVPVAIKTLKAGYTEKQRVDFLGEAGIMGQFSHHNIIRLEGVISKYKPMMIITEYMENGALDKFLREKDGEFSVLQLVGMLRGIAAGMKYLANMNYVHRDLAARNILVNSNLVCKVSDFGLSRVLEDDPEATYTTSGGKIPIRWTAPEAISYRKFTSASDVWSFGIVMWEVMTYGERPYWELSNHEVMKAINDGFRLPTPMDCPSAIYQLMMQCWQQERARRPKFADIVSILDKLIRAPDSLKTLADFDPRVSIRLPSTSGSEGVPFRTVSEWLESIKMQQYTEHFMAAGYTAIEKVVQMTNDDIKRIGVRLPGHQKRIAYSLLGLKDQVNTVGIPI
Assay: as above
Details: compound 0.5 µM; ATP 10 µM

Compound | residual activity
CCc1nc(-c2ccc(OC)cc2)[nH]c1-c1ccncc1 | 102%
O=c1c(-c2ccc(F)cc2)c(-c2ccncc2)[nH]n1-c1ccc(Cl)cc1 | 101%
CCCCc1c(-c2ccc(O)cc2)[nH]c2nccnc12 | 81.7%
O=S(=O)(NCCNC/C=C/c1ccc(Br)cc1)c1cccc2cnccc12 | 101%
Nc1ncnc2c1cnn2-c1ccccc1 | 96%

Molecular target: STK39 (human) (UniProt Q9UEW8)
Assay: as above
Details: compound 0.5 µM; ATP 10 µM

Compound | residual activity
CCc1nc(-c2ccc(OC)cc2)[nH]c1-c1ccncc1 | 94.2%
O=c1c(-c2ccc(F)cc2)c(-c2ccncc2)[nH]n1-c1ccc(Cl)cc1 | 128%
CCCCc1c(-c2ccc(O)cc2)[nH]c2nccnc12 | 76.1%
O=S(=O)(NCCNC/C=C/c1ccc(Br)cc1)c1cccc2cnccc12 | 103%
Nc1ncnc2c1cnn2-c1ccccc1 | 107%

Molecular target: PTK2B (human) (UniProt Q14289)
Assay: as above
Details: compound 0.5 µM; ATP 10 µM

Compound | residual activity
CCc1nc(-c2ccc(OC)cc2)[nH]c1-c1ccncc1 | 94.6%
O=c1c(-c2ccc(F)cc2)c(-c2ccncc2)[nH]n1-c1ccc(Cl)cc1 | 91.7%
CCCCc1c(-c2ccc(O)cc2)[nH]c2nccnc12 | 99%
O=S(=O)(NCCNC/C=C/c1ccc(Br)cc1)c1cccc2cnccc12 | 85%
Nc1ncnc2c1cnn2-c1ccccc1 | 108%
